Columns and labels:
[1] = tested on: ciliary neurotrophic factor; conditions: literature (Wolf et al.); cited from earlier work
LPS-challenged mice = assay: LPS challenge, MAC pre-treatment, survival; assay type: in vivo, CD-1 female mice; conditions: 2.5 mg IP 60 min prior to intravenous LPS
Procedure: Survival curves for LPS-challenged mice, with or without MAC pre-treatment.CD-5 female mice were injected EP with 2.5 mg MAC (.box-solid.) or an equivalent volume of PBS (.circle-solid.). After 60 min, the mice were anesthetized and 57 mg/kg LPS were injected intravenously. The mice were monitored for up to 5 days and then sacrificed. Survival data are presented in panel a. In panel b, mice were injected IP with 2.0 mg MAC (Δ), 1.0 mg MAC (.smallcircle.), or 2.5 mg of native human α2 M (.quadrature.). LPS was injected 60 min later.
CD-1 female mice were obtained from Charles River Breeding Laboratories. Animals were kept on a 12:12 h dark-light cycle. Mice were anesthetized with diethyl ether prior to intravenous injections of LPS. All animals were observed on a continuous basis. Those entering a moribund condition were euthanized by cervical dislocation under anesthesia.

interferon-γ = conditions: literature (Wolf et al.); cited from earlier work
TNF-α [2] = assay: Nondenaturing PAGE binding of 125I-TNF-α to α2M forms; conditions: 125I-TNF-α 1 nM, α2M preparation 1.0 μM, 1 h at 37° C
Procedure: Nondenaturing PAGE was performed on 5% slabs.
The incubation mixtures were then subjected to nondenaturing PAGE, a method that allows recovery of noncovalent as well as covalent α2 M-cytokine complexes. Gonias et al., Ann. […] The TNF-α was detected by autoradiography or Phosphor-Imager analysis.
Crookston et al, Wollenberg et at., Amer. J. Pathol.

mice = assay: Toxicity of IP human MAC in mice; assay type: in vivo; conditions: 1.0, 2.5 or 5.0 mg IP, 5 days of observation
Procedure: Equivalent concentrations of human α2 M (native, unmodified form) were injected IP in separate animals, as a control. Each concentration of MAC or human α2 M was studied in duplicate. […] The animals were sacrificed after 5 days of observation.

TNF-α [3] = conditions: literature (Wolf et al.); read-out: KD, TNF-α binding to α2M; cited from earlier work

Molecule	binding of ciliary neurotrophic factor to α2M [1]	animals that died within 24 h (deaths/total) (LPS-challenged mice)	binding of interferon-γ to α2M (interferon-γ)	binding of 125I-TNF-α (nondenaturing PAGE) (TNF-α [2])	tolerability (neurologic status, respiratory rate, eating and drinking, general behavior) (mice)	Kd (TNF-α [3]) [µM]
native human α2 M: α2-macroglobulin purified from human plasma, native unmodified form	do not bind	4/4	do not bind	not detected	without outward changes in physiology	5 to 10
native murine α2 M: α2-macroglobulin purified from the plasma of CD-1 female mice, native form (protein, UniProt Q61838 25-1495, looked up) Pregnancy zone protein: ATAKPQYVVLVPSEVYSGVPEKACVSLNHVNETVMLSLTLEYAMQQTKLLTDQAVDKDSFYCSPFTISGSPLPYTFITVEIKGPTQRFIKKKSIQIIKAESPVFVQTDKPIYKPGQIVKFRVVSVDISFRPLNETFPVVYIETPKRNRIFQWQNIHLAGGLHQLSFPLSVEPALGIYKVVVQKDSGKKIEHSFEVKEYVLPKFEVIIKMQKTMAFLEEELPITACGVYTYGKPVPGLVTLRVCRKYSRYRSTCHNQNSMSICEEFSQQADDKGCFRQVVKTKVFQLRQKGHDMKIEVEAKIKEEGTGIELTGIGSCEIANALSKLKFTKVNTNYRPGLPFSGQVLLVDEKGKPIPNKNITSVVSPLGYLSIFTTDEHGLANISIDTSNFTAPFLRVVVTYKQNHVCYDNWWLDEFHTQADHSATLVFSPSQSYIQLELVFGTLACGQTQEIRIHYLLNEDIMKNEKDLTFYYLIKARGSIFNLGSHVLSLEQGNMKGVFSLPIQVEPGMAPEAQLLIYAILPNEELVADAQNFEIEKCFANKVNLSFPSAQSLPASDTHLKVKAAPLSLCALTAVDQSVLLLKPEAKLSPQSIYNLLPGKTVQGAFFGVPVYKDHENCISGEDITHNGIVYTPKHSLGDNDAHSIFQSVGINIFTNSKIHKPRFCQEFQHYPAMGGVAPQALAVAASGPGSSFRAMGVPMMGLDYSDEINQVVEVRETVRKYFPETWIWDLVPLDVSGDGELAVKVPDTITEWKASAFCLSGTTGLGLSSTISLQAFQPFFLELTLPYSVVRGEAFTLKATVLNYMSHCIQIRVDLEISPDFLAVPVGGHENSHCICGNERKTVSWAVTPKSLGEVNFTATAEALQSPELCGNKLTEVPALVHKDTVVKSVIVEPEGIEKEQTYNTLLCPQDTELQDNWSLELPPNVVEGSARATHSVLGDILGSAMQNLQNLLQMPYGCGEQNMVLFVPNIYVLNYLNETQQLTEAIKSKAINYLISGYQRQLNYQHSDGSYSTFGNHGGGNTPGNTWLTAFVLKAFAQAQSHIFIEKTHITNAFNWLSMKQKENGCFQQSGYLLNNAMKGGVDDEVTLSAYITIALLEMPLPVTHSAVRNALFCLETAWASISQSQESHVYTKALLAYAFALAGNKAKRSELLESLNKDAVKEEDSLHWQRPGDVQKVKALSFYQPRAPSAEVEMTAYVLLAYLTSESSRPTRDLSSSDLSTASKIVKWISKQQNSHGGFSSTQDTVVALQALSKYGAATFTRSQKEVLVTIESSGTFSKTFHVNSGNRLLLQEVRLPDLPGNYVTKGSGSGCVYLQTSLKYNILPVADGKAPFALQVNTLPLNFDKAGDHRTFQIRINVSYTGERPSSNMVIVDVKMVSGFIPMKPSVKKLQDQPNIQRTEVNTNHVLIYIEKLTNQTLGFSFAVEQDIPVKNLKPAPIKVYDYYETDEFTVEEYSAPFSDGSEQGNA				the level of binding was low		

Reference: patent US5902787A, “Chemically modified a-macroglobulins, methods of making, and methods of using the same in anti-cytokine therapy” (The University of Virginia Patent Foundation, priority 1997, dated 1999)
